# Test results published in US20080319042A1, “Compositions and methods for treatment of liver disease” (priority 2007, published 2008).
# “And” between values parts separate entries of the source, which are not always exact repeats. Identical values can stand only once.
# Legend:
# HCV = conditions: cited from earlier work
# [1] = tested on: hepatitis B surface antigen (HBsAg) production; experiment: Anti-HBSAg Assay (Procedure A); type: cell-based, hepatitis B virus; conditions: 50 μg/ml
# Method: (§1) The HBV-producing human hepatoblastoma cell line, Hep G2.2.15 was maintained in DMEM supplemented with 10% fetal bovine serum (FBS), 2 mM glutamine, 100 units/ml penicillin, 100 μg/ml streptomycin and 380 μg/ml gentamicin sulfate (G418) at 37° C. under 5% CO2 in air. The Hep G2 parental cells were grown under identical conditions in MEM with Earle's salts without G418.
# (§2) Hep G2.2.15 cells (190 μl) were seeded onto microtiter plates at a concentration of 20×10^4 cells/ml. The cells incubated overnight in medium without G418 after which the compound compositions (10 μl) were added. Five 2-fold serial dilutions of extracts or fractions were tested starting at 200 μg/ml final culture concentration. PBS and 3TC (lamivudine) were included as the negative and positive controls, respectively. The treated cells were incubated at 37° C. for 4 days, after which the hepatitis B surface antigen (HBsAg) production in culture supernatants was assayed. The HBsAg released into the culture medium in the presence or absence of test samples was assayed using the BIO-RAD Genetic Systems HBsAg EIA 3.0 kit (Bio-Rad, Redmond, Wash.). This enzyme immunoassay is based on the capture of HBsAg on monoclonal antibody-coated plates. Four- and twelve-fold dilutions of all culture supernatants collected were assayed in triplicate wells of the EIA plate. The percentage inhibition of HBsAg secretion in the presence of the plant samples was calculated against the negative control (PBS).
# Hep G2.2.15 cells = experiment: % Cell Viability in Anti-HBSAg Assay (Procedure A); type: cell-based, human; conditions: 50 μg/ml
# Method: as §1, §2
# HBsAg = experiment: Anti-HBSAg Assay (Procedure B), HBsAg; type: cell-based, hepatitis B virus
# Method: The HBV-producing human hepatoblastoma cell line, Hep G2 2.2.15 is maintained in DMEM supplemented with 10% fetal bovine serum (FBS), 2 mM glutamine, 100 units/ml penicillin, 100 μg/ml streptomycin at 37° C. under 5% CO2 in air.
# Samples were dissolved in DMSO at the concentration of 20 mg/mL, then further diluted with DMEM medium to the appropriate concentration.
# Hep G2 2.2.15 cells (120 μl) were seeded onto 96-well plates at a concentration of 2×10^5 cells/mL. The cells incubated for 72 h in the medium without G418, after which the test samples (120 μl) were added. Five 3-fold serial dilutions of samples were tested. PBS and 3TC (lamivudine) were included as the negative and positive controls, respectively. The treated cells were incubated at 37° C. for 9 days; with the medium with sample being changed each 3 days, after which the culture supernatant was removed for analysis of both the hepatitis B surface antigen (HBsAg) production and hepatitis B DNA expression.
# The HBsAg released into the culture medium in the presence or absence of test material was assayed using the kit manufactured by Shanghai Siic Kehua Biotech Co., Ltd (Shanghai, China). This enzyme immunoassay is based on the capture of HBsAg on monoclonal antibody-coated plates. Four- and twelve-fold dilutions of all culture supernatants collected were assayed in triplicate wells of the kit plate. The percentage inhibition of HBsAg secretion in the presence of the compound was calculated against the negative control (PBS). The IC50 values, the dose that inhibited viruses by 50%, were calculated using non-linear regression analysis (percent survival versus concentration).
# HBeAg = experiment: Anti-HBSAg Assay (Procedure B), HBeAg; type: cell-based, hepatitis B virus
# HBV DNA = experiment: Anti-HBV DNA Assay; type: cell-based, hepatitis B virus; conditions: for HBV DNA copies/ml: replicates, listed as HP-S1
# HCV/HIV pseudovirions = experiment: microbe, parasite or virus in culture; type: cell-based, hepatitis C virus; conditions: FIG. 1
compound,measurement,setting,value
"COc1cc2c(c(OC)c1OC)-c1ccc(OC)c(=O)cc1[C@@H](NC(C)=O)CC2 [Colchicine, colchicine]",effect on disease progression (in words),HCV; advanced liver disease,does not slow the disease progression
COC(=O)C1=CO[C@@H](O[C@@H]2O[C@H](CO)[C@@H](O)[C@H](O)[C@H]2O)[C@H]2[C@@H]1[C@H](O)[C@H](O)[C@]2(C)O [lamiridoside],% Control HBSAg,[1],96%
same,% Inhibition,[1],4%
same,% Cell Viability,Hep G2.2.15 cells,100%
same,HBsAg Ave.,HBsAg; 12.5 μg/mL,1.262
same,HBsAg Inhibition %,HBsAg; 12.5 μg/mL,0%
same,HBsAg OD1,HBsAg; 12.5 μg/mL,1.305
same,HBsAg OD2,HBsAg; 12.5 μg/mL,1.149
same,HBsAg OD3,HBsAg; 12.5 μg/mL,1.331
same,HBsAg Ave.,HBsAg; 25 μg/mL,1.474
same,HBsAg Inhibition %,HBsAg; 25 μg/mL,0%
same,HBsAg OD1,HBsAg; 25 μg/mL,1.604
same,HBsAg OD2,HBsAg; 25 μg/mL,1.418
same,HBsAg OD3,HBsAg; 25 μg/mL,1.401
same,HBsAg Ave.,HBsAg; 50 μg/mL,1.473
same,HBsAg Inhibition %,HBsAg; 50 μg/mL,0%
same,HBsAg OD1,HBsAg; 50 μg/mL,1.659
same,HBsAg OD2,HBsAg; 50 μg/mL,1.504
same,HBsAg OD3,HBsAg; 50 μg/mL,1.255
same,HBsAg Ave.,HBsAg; 100 μg/mL,1.507
same,HBsAg Inhibition %,HBsAg; 100 μg/mL,0%
same,HBsAg OD1,HBsAg; 100 μg/mL,1.584
same,HBsAg OD2,HBsAg; 100 μg/mL,1.469
same,HBsAg OD3,HBsAg; 100 μg/mL,1.468
same,HBsAg Ave.,HBsAg; 200 μg/mL,1.527
same,HBsAg Inhibition %,HBsAg; 200 μg/mL,0%
same,HBsAg OD1,HBsAg; 200 μg/mL,1.546
same,HBsAg OD2,HBsAg; 200 μg/mL,1.504
same,HBsAg OD3,HBsAg; 200 μg/mL,1.531
same,anti-HBSAg activity (in words),HBsAg; Tables 1-2,inactive
same,HBeAg Ave,HBeAg; 12.5 μg/mL,1.369
same,HBeAg Inhibition %,HBeAg; 12.5 μg/mL,0%
same,HBeAg OD1,HBeAg; 12.5 μg/mL,1.509
same,HBeAg OD2,HBeAg; 12.5 μg/mL,1.254
same,HBeAg OD3,HBeAg; 12.5 μg/mL,1.345
same,HBeAg Ave,HBeAg; 25 μg/mL,1.512
same,HBeAg Inhibition %,HBeAg; 25 μg/mL,0%
same,HBeAg OD1,HBeAg; 25 μg/mL,1.558
same,HBeAg OD2,HBeAg; 25 μg/mL,1.488
same,HBeAg OD3,HBeAg; 25 μg/mL,1.49
same,HBeAg Ave,HBeAg; 50 μg/mL,1.642
same,HBeAg Inhibition %,HBeAg; 50 μg/mL,0%
same,HBeAg OD1,HBeAg; 50 μg/mL,1.774
same,HBeAg OD2,HBeAg; 50 μg/mL,1.669
same,HBeAg OD3,HBeAg; 50 μg/mL,1.482
same,HBeAg Ave,HBeAg; 100 μg/mL,1.558
same,HBeAg Inhibition %,HBeAg; 100 μg/mL,0%
same,HBeAg OD1,HBeAg; 100 μg/mL,1.607
same,HBeAg OD2,HBeAg; 100 μg/mL,1.502
same,HBeAg OD3,HBeAg; 100 μg/mL,1.565
same,HBeAg Ave,HBeAg; 200 μg/mL,1.450
same,HBeAg Inhibition %,HBeAg; 200 μg/mL,0%
same,HBeAg OD1,HBeAg; 200 μg/mL,1.095
same,HBeAg OD2,HBeAg; 200 μg/mL,1.634
same,HBeAg OD3,HBeAg; 200 μg/mL,1.621
same,HBV DNA Average,HBV DNA; 12.5 μg/ml,1.18 × 10^6 copies/ml
same,HBV DNA Inhibit,HBV DNA; 12.5 μg/ml,0.00%
same,HBV DNA copies/ml,HBV DNA; 12.5 μg/ml,1.32E+06 copies/ml and 9.64E+05 copies/ml and 1.26E+06 copies/ml
same,HBV DNA Average,HBV DNA; 25 μg/ml,1.64 × 10^6 copies/ml
same,HBV DNA Inhibit,HBV DNA; 25 μg/ml,0.00%
same,HBV DNA copies/ml,HBV DNA; 25 μg/ml,1.95E+06 copies/ml and 1.30E+06 copies/ml and 1.67E+06 copies/ml
same,HBV DNA Average,HBV DNA; 50 μg/ml,1.16 × 10^6 copies/ml
same,HBV DNA Inhibit,HBV DNA; 50 μg/ml,0.85%
same,HBV DNA copies/ml,HBV DNA; 50 μg/ml,1.26E+06 copies/ml and 1.14E+06 copies/ml and 1.07E+06 copies/ml
same,HBV DNA Average,HBV DNA; 100 μg/ml,1.02 × 10^6 copies/ml
same,HBV DNA Inhibit,HBV DNA; 100 μg/ml,12.80%
same,HBV DNA copies/ml,HBV DNA; 100 μg/ml,7.78E+05 copies/ml and 7.93E+05 copies/ml and 1.50E+06 copies/ml
same,HBV DNA Average,HBV DNA; 200 μg/ml,8.40 × 10^5 copies/ml
same,HBV DNA Inhibit,HBV DNA; 200 μg/ml,28.20%
same,HBV DNA copies/ml,HBV DNA; 200 μg/ml,1.17E+06 copies/ml and 5.77E+05 copies/ml and 7.74E+05 copies/ml
same,Anti-HBV DNA activity (in words),HBV DNA; Table 3,inactive
same,inhibition of HCV/HIV entry,HCV/HIV pseudovirions; 100 μg/mL,inactive
same,anti-hepatitis C virus activity (in words),HCV/HIV pseudovirions,inactive
alpha-interferon,patients with a pronounced effect in reducing HCV to a very low level in the blood,HCV; chronic hepatitis C patients,about 25%
